Seven compounds from PMC11110727, “Exploiting thiol-functionalized benzosiloxaboroles for achieving diverse substitution patterns – synthesis, characterization and biological evaluation of promising antibacterial agents” (RSC Medicinal Chemistry, 2024) can be followed below.

Converted amounts (≈) assume the structure as drawn. Bounds are passed on as bounds.

In test [1] the test system is P. aeruginosa ATCC 27853. As to the kind of experiment: Antibacterial activity: MIC/MBC, MIC with PAβN, disc-diffusion. The class given is cell-based. The conditions noted are these: Pseudomonas aeruginosa, ATCC27853; P. aeruginosa ATCC 27853; read-out: MIC. A digest of the protocol: (§1)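 MICs were measured by CLSI broth microdilution in Mueller–Hinton II broth, with or without the efflux-pump inhibitor PAβN (20 μg mL^−1) and with 1 mM MgSO4 present. A reduction of at least 4-fold with PAβN was counted as significant. Disc diffusion followed EUCAST/CLSI, MBC followed CLSI, and compounds were dissolved in DMSO.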
A general note: Agar diffusion results depend on both activity and mobility in agar.

Test [2] concerns C. guilliermondii IBA 155. As to the kind of experiment: Antifungal activity: MIC/MFC, disc-diffusion. The conditions noted are these: for diameter of inhibition zone / MFC: C. guilliermondii IBA 155; for diameter of inhibition zone: (-) = zone not observed, paper discs 9 mm; for MIC / MFC: Meyerozyma guilliermondii, IBA155; for MIC: read-out: MIC. The class given is cell-based. The gist of the method: (§2)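 Strains were subcultured twice for 24–48 h at 30 °C, on TSA for bacteria and Sabouraud dextrose agar for yeasts. Disc-diffusion and MIC followed EUCAST/CLSI recommendations, and MBC/MFC followed CLSI. Compounds were dissolved in DMSO, with fluconazole or linezolid as references.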

The subject of test [3] is C. tropicalis ATCC 750. As to the kind of experiment: Antifungal activity: MIC/MFC, disc-diffusion. The class given is cell-based. Particulars: for diameter of inhibition zone: C. tropicalis ATCC 750, (-) = zone not observed, paper discs 9 mm; for MIC: Candida tropicalis, ATCC750, read-out: MIC. A digest of the protocol: as §2
Test [4] has as its system C. tropicalis IBA 171. Briefly: Antifungal activity: MIC/MFC, disc-diffusion. The conditions noted are these: for diameter of inhibition zone: C. tropicalis IBA 171, (-) = zone not observed, paper discs 9 mm; for MIC: Candida tropicalis, IBA171, read-out: MIC. The class given is cell-based. The gist of the method:
as §2

Test [5] relates to C. parapsilosis ATCC 22019. As to the kind of experiment: Antifungal activity: MIC/MFC, disc-diffusion. Type of test: cell-based. The conditions noted are these: for diameter of inhibition zone: C. parapsilosis ATCC 22019, (-) = zone not observed, paper discs 9 mm; for MIC: Lodderomyces parapsilosis, ATCC22019, read-out: MIC. The gist of the method:
as §2

The test system of test [6] is B. cepacia ATCC 25416. As to the kind of experiment: Antibacterial activity: MIC/MBC, disc-diffusion. Type of test: cell-based, Burkholderia cepacia. Particulars: Burkholderia cepacia, ATCC25416; B. cepacia ATCC 25416; read-out: MIC. The gist of the method: as §1
The test system of test [7] is S. cerevisiae ATCC 9763. As to the kind of experiment: Antifungal activity: MIC/MFC, disc-diffusion. Type of test: cell-based, Saccharomyces cerevisiae. Particulars: for diameter of inhibition zone / MFC: S. cerevisiae ATCC 9763; for diameter of inhibition zone: (-) = zone not observed, paper discs 9 mm; for MIC / MFC: Saccharomyces cerevisiae, ATCC9763; for MIC: read-out: MIC. A digest of the protocol:
as §2

The subject of test [8] is C. albicans ATCC 90028. As to the kind of experiment: Antifungal activity: MIC/MFC, disc-diffusion. Particulars: for diameter of inhibition zone: C. albicans ATCC 90028, (-) = zone not observed, paper discs 9 mm; for MIC: Candida albicans, ATCC90028, read-out: MIC. The class given is cell-based, Candida albicans. A digest of the protocol: as §2
In test [9] the test system is S. maltophilia ATCC 13637. Briefly: Antibacterial activity: MIC/MBC, MIC with PAβN, disc-diffusion. The class given is cell-based, Stenotrophomonas maltophilia. The conditions noted are these: S. maltophilia ATCC 13637; for MIC: read-out: MIC. The gist of the method: as §1
For test [10], the system named is S. maltophilia ATCC 12714. The description is as above. The class given is cell-based, Stenotrophomonas maltophilia. Particulars: Stenotrophomonas maltophilia, ATCC12714; S. maltophilia ATCC 12714; read-out: MIC. The gist of the method:
as §1

Test [11] deals with E. cloacae DSM 6234. Described as above. Type of test: cell-based, Enterobacter cloacae. The conditions noted are these: E. cloacae DSM 6234; for MIC: Enterobacter cloacae, DSM6234, read-out: MIC. The gist of the method: as §1
Where [12] appears, read: Stenotrophomonas maltophilia, ATCC13637.

The MIC is the lowest concentration found to suppress growth. As a reminder, the MBC is the lowest tested concentration that kills the bacteria rather than only halting them. Lower therefore signals more potent killing. For the compound `C[Si]1(C)OB(O)c2cc(F)c(SC3CC(=O)N(c4ccc(F)cc4)C3=O)c(F)c21` (centres unmarked) [Compound 14, 3-((5,7-Difluoro-3-hydroxy-1,1-dimethyl-1,3-dihydrobenzo[c][1,2,5]oxasilaborol-6-yl)thio)-1-(4-fluorophenyl)pyrrolidine-2,5-dione], the MIC was above 200 µg/mL in test [1]; 100 µg/mL (≈ 229 µM) in test [2]; 200 µg/mL (≈ 457 µM) in test [3]; 200 µg/mL (≈ 457 µM) in test [4]; 100 µg/mL (≈ 229 µM) in [5]; above 200 µg/mL in test [6]. For the same compound, the minimal inhibitory concentration (MIC) in test [7] is 50 µg/mL (≈ 114 µM); in test [8], 200 µg/mL (≈ 457 µM); in test [9] (setting [12]), 25 µg/mL (≈ 57.2 µM); in test [10], 100 µg/mL (≈ 229 µM); in test [11], above 200 µg/mL. Besides, the “diameter of inhibition zone” value worked out at 31 mm in [2]; 20 mm in [3]; 19 mm in test [4]; 27 mm in [5]; 30 mm in test [7]; 21 mm in [8]. For the same compound, the “diameter of inhibition zone” value in test [9] ((-) = zone not observed, paper discs 9 mm) is listed as 11 mm. Besides, in test [9] (setting [12]), the minimal bactericidal concentration (MBC) was determined as 100 µg/mL (≈ 229 µM).

For `C[Si]1(C)OB(O)c2ccc(SC3CC(=O)N(c4ccc(F)cc4)C3=O)c(F)c21` (centres unmarked) [Compound 15, 3-((7-Fluoro-3-hydroxy-1,1-dimethyl-1,3-dihydrobenzo[c][1,2,5]oxasilaborol-6-yl)thio)-1-(4-fluorophenyl)pyrrolidine-2,5-dione], the MIC in test [1] was above 200 µg/mL; in test [2] it was 200 µg/mL (≈ 477 µM); in test [3], above 200 µg/mL; in test [4] it was above 200 µg/mL; in [5], 200 µg/mL (≈ 477 µM); in [6] it was above 200 µg/mL. Besides, the minimal inhibitory concentration (MIC) was 200 µg/mL (≈ 477 µM) in [7]; 200 µg/mL (≈ 477 µM) in test [8]; above 200 µg/mL in test [9] (setting [12]); above 200 µg/mL in [10]; above 200 µg/mL in test [11]. The “diameter of inhibition zone” value in [2] came out at 28 mm; in test [3], 14 mm; in test [4] it was 15 mm; in test [5] it was 23 mm; in test [7] it was 26 mm; in test [8], 19 mm.

As a reminder, the MFC is the lowest tested concentration that kills the fungus rather than only halting it. For `C[Si]1(C)OB(O)c2cc(F)c(SC3CC(=O)N(c4ccc(Br)c(C(F)(F)F)c4)C3=O)c(F)c21` (centres unmarked) [Compound 16, 1-(4-Bromo-3-(trifluoromethyl)phenyl)-3-((5,7-difluoro-3-hydroxy-1,1-dimethyl-1,3-dihydrobenzo[c][1,2,5]oxasilaborol-6-yl)thio)pyrrolidine-2,5-dione], the minimum inhibitory concentration (MIC) in test [1] was above 200 µg/mL; in test [2] it was 12.5 µg/mL (≈ 22.1 µM); in test [3] it was 50 µg/mL (≈ 88.3 µM); in [4] it was 50 µg/mL (≈ 88.3 µM); in test [5], 50 µg/mL (≈ 88.3 µM); in test [6], above 200 µg/mL. Further, the minimum inhibitory concentration (MIC) was 6.25 µg/mL (≈ 11 µM) in test [7]; 50 µg/mL (≈ 88.3 µM) in test [8]; above 200 µg/mL in test [9] (setting [12]); above 200 µg/mL in test [10]; above 200 µg/mL in test [11]. In addition, the “diameter of inhibition zone” value in test [2] amounted to 30 mm; in test [3], 19 mm; in test [4], 19 mm; in [5], 24 mm; in [7], 35 mm; in test [8] it was 25 mm. The minimal fungicidal concentration (MFC) in test [2] and in test [7] was 50 µg/mL (≈ 88.3 µM) throughout.

Regarding `C[Si]1(C)OB(O)c2ccc(SC3CC(=O)N(c4ccc(Br)c(C(F)(F)F)c4)C3=O)c(F)c21` (centres unmarked) [Compound 17, 1-(4-Bromo-3-(trifluoromethyl)phenyl)-3-((7-fluoro-3-hydroxy-1,1-dimethyl-1,3-dihydrobenzo[c][1,2,5]oxasilaborol-6-yl)thio)pyrrolidine-2,5-dione], the MIC in [1] was above 200 µg/mL; in test [2], 50 µg/mL (≈ 91.2 µM); in test [3], 100 µg/mL (≈ 182 µM); in test [4], 200 µg/mL (≈ 365 µM); in test [5], 50 µg/mL (≈ 91.2 µM); in test [6], above 200 µg/mL. Further, the MIC in [7] was 6.25 µg/mL (≈ 11.4 µM); in test [8] it was 100 µg/mL (≈ 182 µM); in test [9] (setting [12]), above 200 µg/mL; in test [10] it was above 200 µg/mL; in test [11], above 200 µg/mL. Moreover, the “diameter of inhibition zone” value in test [2] was 27 mm; in [3] it was 14 mm; in test [4] it was 16 mm; in test [5] it was 22 mm; in [7] it was 33 mm; in test [8], 20 mm. The figures for the MFC in test [2] and in test [7] were 200 µg/mL (≈ 365 µM) and 100 µg/mL (≈ 182 µM), respectively.

In the case of `C[Si]1(C)OB(O)c2cc(F)c(SCCC(=O)OCCCCCC[n+]3ccccc3)c(F)c21` [Compound 18, 1-(6-((3-((5,7-difluoro-3-hydroxy-1,1-dimethyl-1,3-dihydrobenzo[c][1,2,5]oxasilaborol-6-yl)thio)propanoyl)oxy)hexyl)pyridin-1-ium trifluoromethanesulfonate], the MIC is above 400 µg/mL in test [1]; above 400 µg/mL in [2]; 400 µg/mL in [3]; 400 µg/mL in test [4]; 400 µg/mL in test [5]; above 400 µg/mL in test [6]. Moreover, the minimum inhibitory concentration (MIC) in [7], in [8], in [9] (setting [12]), in test [10] and in test [11] was above 400 µg/mL throughout. In [5], the “diameter of inhibition zone” value was determined as 14 mm.

For `C[Si]1(C)OB(O)c2ccc(SCCC(=O)OCCCCCC[n+]3ccccc3)c(F)c21` [Compound 19, 1-(6-((3-((7-Fluoro-3-hydroxy-1,1-dimethyl-1,3-dihydrobenzo[c][1,2,5]oxasilaborol-6-yl)thio)propanoyl)oxy)hexyl)pyridin-1-ium trifluoromethanesulfonate], the MIC was above 400 µg/mL in test [1]; above 400 µg/mL in [2]; 400 µg/mL in test [3]; 400 µg/mL in [4]; 400 µg/mL in [5]; above 400 µg/mL in [6]. In addition, the MIC in test [7], in [8], in [9] (setting [12]), in test [10] and in [11] was above 400 µg/mL in each case. Moreover, the “diameter of inhibition zone” value in test [3] was 15 mm; in [4] it was 16 mm; in test [5], 16 mm.

In the case of `C[Si]1(C)OB(O)c2cc(F)c(SCCS(=O)(=O)c3ccccc3)c(F)c21` [Compound 20, 5,7-Difluoro-1,1-dimethyl-6-((2-(phenylsulfonyl)ethyl)thio)benzo[c][1,2,5]oxasilaborol-3(1H)-ol], the minimum inhibitory concentration (MIC) in test [1], in test [2], in [3], in [4], in [5] and in test [6] was above 400 µg/mL each time. The minimum inhibitory concentration (MIC) in test [7] is 400 µg/mL (≈ 965 µM); in test [8], above 400 µg/mL; in test [9] (setting [12]), above 400 µg/mL; in test [10], above 400 µg/mL; in test [11], above 400 µg/mL. In addition, in test [7], the “diameter of inhibition zone” value is 16 mm. In test [11] (PAβN 20 μg mL^−1, MHB + 1 mM MgSO4), the “-fold reduction of MIC in the presence of PAβN” value was 4 -fold.
